The record followed here is PubChem BioAssay (NCI).

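In this assay, cells in 96-well plates receive the compound at five concentrations for 48 hours. Endpoints are linearly interpolated between the surrounding concentrations. At the GI50, growth is halved. At the TGI there is no net growth.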 Some results are limits rather than exact numbers.

Some test systems named below: K-562 leukemia; CAKI-1 renal; MOLT-4 leukemia; CCRF-CEM leukemia; SK-MEL-28 melanoma; SF-539 CNS; UACC-257 melanoma; NCI-H522 lung; EKVX NSCLC; IGROV1 ovarian.
Holding throughout (assay): NCI tumour cell line growth inhibition, 48 h

`O=c1c2ccccc2[nH]c2c(O)ccc(O)c12`: the TGI is 56.3 µM in the assay on K-562 leukemia; 30.4 µM in the assay on CAKI-1 renal; 22.8 µM in the assay with MOLT-4 leukemia; over 88.6 µM in the assay with CCRF-CEM leukemia; 35.2 µM with SK-MEL-28 melanoma; 75.3 µM in the assay on SF-539 CNS. In addition, the TGI was 34.6 µM in the assay on UACC-257 melanoma, 29 µM in the assay with NCI-H522 lung, over 62.1 µM in the assay with EKVX NSCLC and 35.3 µM in the assay on IGROV1 ovarian.

For `O=C1C(=C2CCCC2)CCC1CN1CCCCC1` (stereo unspecified), the TGI in the assay on K-562 leukemia is 47.1 µM; in the assay with MOLT-4 leukemia, 41.9 µM; with CCRF-CEM leukemia, 36.6 µM; with SK-MEL-28 melanoma, 31.3 µM; in the assay on SF-539 CNS it was 50.1 µM; with UACC-257 melanoma, 34.8 µM. For the same molecule, the TGI was determined as 3.45 µM in the assay on NCI-H522 lung, 35.4 µM with EKVX NSCLC and 36.3 µM in the assay on IGROV1 ovarian.

Regarding `c1ccc(CN2CCc3[nH]c4ccccc4c3C2)cc1`, the TGI with K-562 leukemia is 55.1 µM; in the assay with CAKI-1 renal, over 100 µM; with MOLT-4 leukemia, 66.1 µM; in the assay with CCRF-CEM leukemia, over 82.6 µM; with SK-MEL-28 melanoma it was 32.8 µM; with SF-539 CNS, 56.2 µM. The TGI with UACC-257 melanoma was 37.1 µM; in the assay on NCI-H522 lung, 42.4 µM; in the assay with EKVX NSCLC, over 86.8 µM; in the assay with IGROV1 ovarian, over 79.5 µM.

With `Cc1c(Cl)c(=O)oc2cc(OC/C=C3\CCC(=O)O3)ccc12`, the GI50 is 28.2 µM in the assay on K-562 leukemia; 11.6 µM with CAKI-1 renal; 16.5 µM in the assay on MOLT-4 leukemia; 12.5 µM in the assay with CCRF-CEM leukemia; 19.7 µM with SK-MEL-28 melanoma; 17.4 µM with SF-539 CNS. Further, the GI50 with UACC-257 melanoma is 27.2 µM; with NCI-H522 lung, 11 µM; in the assay on EKVX NSCLC, 29.9 µM; with IGROV1 ovarian, 12.9 µM. Further, the TGI in the assay on K-562 leukemia was 78.7 µM; with CAKI-1 renal, 30.2 µM; in the assay on MOLT-4 leukemia it was over 100 µM; in the assay with CCRF-CEM leukemia it was 61.3 µM; in the assay on SK-MEL-28 melanoma, 50 µM; with SF-539 CNS, 56.5 µM. Besides, the TGI was 99 µM with UACC-257 melanoma, 24.2 µM in the assay with NCI-H522 lung, over 100 µM in the assay with EKVX NSCLC and 27.5 µM in the assay with IGROV1 ovarian.

For the molecule `O=C1Nc2cc(-c3cccc(O)c3)ccc2/C1=C/c1ccc[nH]1`, the GI50 with K-562 leukemia was 0.355 µM; in the assay with CAKI-1 renal, 1.79 µM; in the assay with MOLT-4 leukemia, 1.07 µM; in the assay with CCRF-CEM leukemia it was 2.27 µM; in the assay on SK-MEL-28 melanoma it was 1.73 µM; with SF-539 CNS, 1.12 µM. In addition, the GI50 in the assay on UACC-257 melanoma was 2.81 µM; with NCI-H522 lung, 1.6 µM; in the assay on EKVX NSCLC, 0.121 µM; in the assay on IGROV1 ovarian, 1.01 µM. Further, the TGI with K-562 leukemia is over 100 µM; in the assay with CAKI-1 renal, 5.91 µM; with MOLT-4 leukemia, 33.6 µM; with CCRF-CEM leukemia, over 100 µM; in the assay on SK-MEL-28 melanoma it was 3.59 µM; in the assay on SF-539 CNS it was 2.49 µM. Also, the TGI amounted to 8.53 µM in the assay with UACC-257 melanoma, 14.1 µM with NCI-H522 lung, 17 µM in the assay with EKVX NSCLC and 10.1 µM in the assay with IGROV1 ovarian.

Consider `CC(C)c1ccc(C2NC(=S)NC3=C2c2ccccc2C3=O)cc1` (stereo unspecified), for which the TGI in the assay with K-562 leukemia is over 60 µM; with CAKI-1 renal, over 58.5 µM; with MOLT-4 leukemia it was over 65 µM; in the assay with CCRF-CEM leukemia, over 68 µM; in the assay with SK-MEL-28 melanoma, 57.9 µM; with SF-539 CNS, 37.8 µM. In addition, the TGI in the assay with UACC-257 melanoma is over 58.7 µM; in the assay with NCI-H522 lung, 41.9 µM; in the assay on EKVX NSCLC, over 58.6 µM; with IGROV1 ovarian it was over 54.6 µM.

With `CCc1cccc(C(C)C)c1NC(=O)CCl`, the TGI with K-562 leukemia, with CAKI-1 renal, in the assay with MOLT-4 leukemia, in the assay on CCRF-CEM leukemia, with SK-MEL-28 melanoma and in the assay with SF-539 CNS was over 100 µM throughout. For the same molecule, the TGI in the assay on UACC-257 melanoma, with NCI-H522 lung, in the assay with EKVX NSCLC and in the assay on IGROV1 ovarian was over 100 µM throughout.

Regarding `Cc1ccc(S(=O)(=O)NC(=O)NCCc2ccccc2)cc1`, the TGI in the assay with K-562 leukemia, in the assay with CAKI-1 renal, in the assay with MOLT-4 leukemia, in the assay with CCRF-CEM leukemia, with SK-MEL-28 melanoma and in the assay on SF-539 CNS was over 100 µM in each case. Further, the TGI was 88.2 µM with UACC-257 melanoma, over 100 µM in the assay with NCI-H522 lung, over 100 µM in the assay on EKVX NSCLC and over 100 µM in the assay on IGROV1 ovarian.

In the case of `Nc1ccc(-c2cc(C(=O)Nc3nccs3)[nH]c(=S)n2)cc1`, the TGI in the assay on K-562 leukemia, in the assay on CAKI-1 renal, in the assay with MOLT-4 leukemia, in the assay on CCRF-CEM leukemia, in the assay with SK-MEL-28 melanoma and in the assay with SF-539 CNS was over 100 µM each time. Besides, the TGI in the assay with UACC-257 melanoma, in the assay on NCI-H522 lung, in the assay with EKVX NSCLC and in the assay on IGROV1 ovarian was over 100 µM each time.

`CC1=C(C(=O)NCc2ccccc2)C(c2ccc(Cl)c(Cl)c2)C(C(=O)NCc2ccccc2)=C(C)N1`: the TGI with K-562 leukemia, in the assay with MOLT-4 leukemia, with CCRF-CEM leukemia, in the assay with SK-MEL-28 melanoma, in the assay with SF-539 CNS and in the assay with UACC-257 melanoma was over 100 µM throughout. Besides, the TGI in the assay on NCI-H522 lung, in the assay with EKVX NSCLC and with IGROV1 ovarian was over 100 µM each time.

Regarding `CC1(C)CCCC2(C)C3C(O)CC2(C)C(O)C31` (stereo unspecified), the TGI with K-562 leukemia, with MOLT-4 leukemia, with CCRF-CEM leukemia, with SK-MEL-28 melanoma, in the assay on SF-539 CNS and in the assay on UACC-257 melanoma was over 100 µM throughout. Moreover, the TGI with NCI-H522 lung, in the assay on EKVX NSCLC and with IGROV1 ovarian was over 100 µM throughout.

Regarding `C/C(=N\NC(=O)C[N+](C)(C)C)c1sc(-c2cccnc2)nc1C`, the TGI in the assay with K-562 leukemia, in the assay on MOLT-4 leukemia, in the assay with CCRF-CEM leukemia, in the assay with SK-MEL-28 melanoma, in the assay on SF-539 CNS and with UACC-257 melanoma was over 100 µM throughout. Further, the TGI in the assay on NCI-H522 lung, with EKVX NSCLC and in the assay on IGROV1 ovarian was over 100 µM throughout.
